Experiments:
[1] = target: T1, human type 2 17β-hydroxysteroid dehydrogenase (Homo sapiens, UniProt P37059); test: Enzymatic assay for type 2 17β-HSD; assay type: biochemical; conditions: for inhibition / IC50: Table 4′; for inhibition: bracketed values, 3 · 10^−8M, read-out: Inhibition Type 2 17β-HSD Activity [% Inh. at 3 · 10^−8M]; for IC50: read-out: Inhibition Type 2 17β-HSD Activity IC50; for Inhibition Type 2 17β-HSD Activity [% Inh.]: at 3.10^-8M
T1 construct: expressed in transfected cells; host or cells: 293 cells, transient transfection; microsomal fraction (100 000×g pellet)
T1 sequence (P37059 1-387): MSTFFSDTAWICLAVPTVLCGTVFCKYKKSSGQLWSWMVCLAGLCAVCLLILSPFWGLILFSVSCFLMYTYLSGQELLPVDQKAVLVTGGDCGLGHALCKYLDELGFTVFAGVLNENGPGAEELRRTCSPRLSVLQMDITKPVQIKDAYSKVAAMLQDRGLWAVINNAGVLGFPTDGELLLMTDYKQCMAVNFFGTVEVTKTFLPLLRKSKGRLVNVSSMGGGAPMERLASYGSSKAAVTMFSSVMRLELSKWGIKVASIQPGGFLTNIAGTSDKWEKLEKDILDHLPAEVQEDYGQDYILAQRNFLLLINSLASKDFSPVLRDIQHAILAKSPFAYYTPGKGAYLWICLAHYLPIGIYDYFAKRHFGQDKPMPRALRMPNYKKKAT
Description: The manner in which IC50 was determined is described in “Efficacy of Preferred Inhibitors: VI. Enzymatic assay for types 1, 2, and 3 17β-HSD and types 1 and 3 3α-HSD”. […] numbers of IC50 are desirable. Blank means that a determination was not done. […]
Enzyme sources. 293 cells transiently transfected with expression vectors encoding types 1, 2 and 3 17β-HSD (Luu-The et al., J. Steroid Biochem. Molec. Biol., 55: 581-587, 1995), types 1 and 2 5α-reductase (Luu-The et al., J. Invest. Dermatol., 102: 221-226, 1994) and types 1 and 3 3α-HSD (Dufort et al. Biochem. Biophys. Res. Commun. 228: 474-479, 1996), using the calcium phosphate procedure (Kingston et al., In: Current Protocols in Molecular Biology. Edited by E. M. Ausbel, R. Brent, R. E. Kingston, D. D. Moore, J. G. Seidman, J. A. Smith, K. Struhl. John Wiley & Sons, New York, pp. 9.1.1-9.1.9, 1991; Luu-The et al., J. Invest. Dermatol., 102: 221-226, 1994). For assays using cell subfractions, cells were sonicated in 50 mM sodium phosphate buffer (pH 7.4), containing 20% glycerol and 1 mM EDTA and centrifuged at 10 000×g for 30 min before centrifugation for 100 000×g for 1 h to separate the mitochondrial and microsomal fractions, respectively. The cytosol fractions (100 000×g supernatant) was used to determine type 1 activity while the microsomal fraction (pellet at 100 000×g) was used for measurement of types 2 and 3 17β-HSD activities.
Incubation. The enzymatic reaction was carried out at 37° C. in 1 ml of 50 mM sodium phosphate buffer, pH 7.4, containing 20% glycerol, 1 mM EDTA, and 2 mM cofactors (NADPH or AND^+) for 1 h in the presence of 0.1 μM ^14C-labeled substrate: estrone and 4-dione for types 1 and […] 17β-HSD, respectively, testosterone for type 2 17β-HSD as well as types 1 and 2 5α-reductases, DHT for types 1 and 3 3α-HSD activities, and the indicated concentration of inhibitor.
Extraction of metabolites, migration on TLC and quantification were as described above for the assay of type 5 17β-HSD.

[2] = In vivo assay of oral bioavailability (plasma AUC 0-7 h by LCMS/MS); parameters: species or system male Sprague Dawley rats; conditions: male, Sprague-Dawley [Crl:CD(SD)Br]
Description: In column 1, the oral bioavailability of preferred type 5 inhibitors, expressed in ng/mL.h, was determined as described below in “Other Tests, A-In Vivo Assays of Bioavailability of Human Type 5 17β-HSD Inhibitors”. Higher number are desirable. ND means that a determination was not done.
The measurements at various time intervals were for values greater than or equal to 1.0 ng/mL and less than or equal to 50 ng/mL.
Male Sprague-Dawley rats [Crl:CD(SD)Br] weighing 275-350 g were obtained from Charles-River Canada Inc. and housed 2 per cage during the acclimation period and individually during the study period. The animals were maintained under a regimen of 12 hours light: 12 hours dark (lights on at 08:00). Animals received certified Rodent feed (Lab Diet #5002, pellets) and tap water ad libitum. Rats were fasted (access to water only) starting on the evening prior to dosing.
Each compound to be tested was administered to three animals as a suspension in 0.4% methylcellulose by oral gavage at a dose of 0.5 mg/rat (1.0 ml/rat). Four to eight new compounds were tested each day and one group of animals received megestrol acetate (MGA) under the same conditions on each dosing day as a reference. […] Blood samples were immediately transferred into a refrigerated 0.75 ml Microtainer containing EDTA and kept in an ice-water bath until centrifugation at 3000 rpm for 10 minutes. Plasma separation was performed rapidly (less than 50 minutes) after blood collection. One aliquot of 0.25 ml of plasma was then transferred into a borosilicate tube (13×100) and was rapidly frozen on dry-ice. Plasma samples were kept at −80° C. until measurement of plasma concentration of the inhibitor(s) by LCMS/MS.
Aliquots of rat plasma (0.250 mL) were transferred to 13×100 mm borosilicate tubes. Water (1.0 mL) and internal standard solution (0.1 mL) were added to each sample and vortexed for 2 min. A mixture of N-butyl chloride and acetone (v:v, 7:3) (3 mL) was added to each sample and vortexed for 2 min. This step was repeated and the combined organic phases were evaporated to dryness under nitrogen in a Turbo Vap evaporator at 35° C. The residue was reconstituted with 1 mL of methanol and evaporated in a Turbo Vap evaporator at 35° C. The final extract was reconstituted into 0.1 mL of methanol/water (v:v, 75:25) and then transferred into a conical vial for injection into the mass spectrometer.
The assay procedure was performed by analyzing, in duplicate, rat plasma samples spiked at six different Type 5 inhibitor concentrations (1, 2, 5, 10, 20 and 50 ng/mL). The lower limit of quantitation (LOQ) was established at 1.0 ng/mL. Values lower than 1.0 ng/mL were expressed as below limit of quantification (BLQ). […]

[3] = 0.5 mg, Table 4′, oral, rat plasma

| Compound | AUC(0-t) [2, 3] [ng·h/mL] | IC50 [1] [µM] | other results |
| --- | --- | --- | --- |
| C[C@]12CCC3c4ccc(O)cc4CCC3C1CC[C@@]21CCCC(=O)O1 (stereo partly drawn) [EM-919, 1,3,5(10)-estratrien-3-ol-17(R)-spiro-2′(6′-oxo)tetrahydropyran] | 4.8 ± 0.8 |  | inhibition [1]: 86% |
| CC1(C)CCC2(CCC3C4CCc5cc(OCCN6CCCCC6)ccc5C4CCC32C)OC1=O [EM-1390-CS, 3-(N-piperidyl-ethyl)-1,3,5(10)-estratrien-17(R)-spiro-2′-(5′,5′-dimethyl-6′-oxo)-tetrahydropyran] | 401 ± 5 | > 10 |  |
| COc1ccc2c(c1)C(=O)CC1C2CC[C@@]2(C)C1CC[C@@]21CCC(C)(C)C(=O)O1 (some centres unmarked) [EM-1394] | 1760 ± 69 | > 10 |  |
| CC1(C)CCC2(CCC3C4CCc5c(cc(Cl)c(O)c5Cl)C4CCC32C)OC1=O (centres unmarked) [EM-1391-CS] | 28 ± 3.4 | > 10 |  |
| COCCOc1cc2c(cc1C#N)C1CC[C@@]3(C)C(CC[C@@]34CCC(C)(C)C(=O)O4)C1CC2 (some centres unmarked) [EM-1396] | 196 ± 53 | > 10 |  |
| CC1(C)CC[C@@]2(CCC3C4CCc5cc(F)ccc5C4CC[C@@]32C)OC1=O (some centres unmarked) [EM-1157-CS] | 40 ± 7 | > 10 |  |
| CC(=O)[C@@]1(OC(=O)CCCCF)CCC2C3C=C(C)C4=CC(=O)CC[C@]4(C)C3CC[C@@]21C (some centres unmarked) [EM-1195-CS] |  |  | Inhibition Type 2 17β-HSD Activity [% Inh.] [1]: [40] %; AUC(0-t) ([2]; rat, plasma, po, 0.5 mg): 31 ± 5.5 ng·h/mL |
| COc1ccc(CC(=O)O[C@]2(C(C)=O)CCC3C4C=C(C)C5=CC(=O)C=C[C@]5(C)C4CC[C@@]32C)cc1 (some centres unmarked) [EM-1291] |  |  | Inhibition Type 2 17β-HSD Activity [% Inh.] [1]: [67] %; AUC(0-t) ([2]; rat, plasma, po, 0.5 mg): 94 ± 23 ng·h/mL |
| COCCOc1cc2c(cc1C(=O)OC)C1CC[C@@]3(C)C(CC[C@@]34CCC(C)(C)C(=O)O4)C1CC2 (stereo partly drawn) [EM-1402-CS, 2-Carbomethoxy-3-(2″-methoxyethyloxy)-1,3,5(10)-estratrien 17(R)-spiro-2′-(5′,5′-dimethyl-6′-oxo)tetrahydropyran] | 214 ± 36 | > 10 |  |
| COCCOc1cc2c(cc1Cl)C1CCC3(C)C(CCC34CCC(C)(C)C(=O)O4)C1CC2 (centres unmarked) [EM-1371-CS] | 64 ± 21 | > 10 |  |
| CC1(C)CC[C@@]2(CCC3C4CCc5cc(C(=O)O)ccc5C4CC[C@@]32C)OC1=O (stereo partly drawn) [EM-1401, 3-Carboxy-1,3,5(10)-estratrien-17(R)-spiro-2′-(5′,5′-dimethyl-6′-oxo)tetrahydropyran] | 1630 ± 181 |  | inhibition [1]: 76% |
| CC(=O)O[C@]1(C(C)=O)CCC2C3C=C(C)C4=CC(=O)CC[C@]4(C)C3CC[C@@]21C (some centres unmarked) [megestrol acetate, reference compound] |  |  | AUC(0-t) ([2]; rat, plasma, po, 0.5 mg): 92 ± 17 ng·h/mL |
| CN(C)CCOc1ccc2c(c1)CCC1C2CCC2(C)C1CCC21CCC(C)(C)C(=O)O1 (centres unmarked) [EM-1389-CS] | 169 ± 2 | > 10 |  |
| CCCC(=O)OC1(C(C)=O)CCC2C3C=C(C)C4=CC(=O)CC(C)C4(C)C3CCC21C (centres unmarked) [CS-245] |  |  | AUC(0-t) ([2]; rat, plasma, po, 0.5 mg): 18 ± 5 ng·h/mL |
| CC(C)C[C@@H]1CC2C3C=CC4=CC(=O)CC[C@]4(C)C3CC[C@]2(C)C1=O (some centres unmarked) [EM-1273-CS] |  |  | AUC(0-t) ([2]; rat, plasma, po, 0.5 mg/rat): 85 ± 26 ng·h/mL |
| CCCCN(C)C(=O)[C@@]1(OC(C)=O)CCC2C3C=C(C)C4=CC(=O)CC[C@]4(C)C3CC[C@@]21C (some centres unmarked) [EM-1165] |  |  | AUC(0-t) ([2]; rat, plasma, po, 0.5 mg): 24 ± 3.6 ng·h/mL |
| CCC[C@@H]1CC2C3C=CC4=CC(=O)CC[C@]4(C)C3CC[C@]2(C)C1=O (some centres unmarked) [EM-1097] |  |  | inhibition at 3 µM ([1]; 3 · 10^−6 M, value in square brackets, read-out: Inhibition Type 2 17B-HSD Activity [% Inh. at 3 · 10^−6 M]): 53%; AUC(0-t) ([2]; rat, plasma, po, 0.5 mg/rat): 122 ± 5.7 ng·h/mL |
| CC1(C)CC[C@@]2(CCC3C4CCc5cc(C(N)=O)ccc5C4CCC32C)OC1=O (some centres unmarked) [EM-1404] | 3840 ± 197 | > 10 |  |
| CC(=O)O[C@]1(C(=O)N(C)C)CCC2C3C=C(C)C4=CC(=O)CC[C@]4(C)C3CC[C@@]21C (some centres unmarked) [EM-1159] |  |  | AUC(0-t) ([2]; rat, plasma, po, 0.5 mg): 452 ± 170 ng·h/mL |
| COc1c(Br)cc2c(c1Br)CCC1C2CCC2(C)C1CCC21CCC(C)(C)C(=O)O1 (centres unmarked) [EM-1385-CS] | 301 ± 36 | > 10 |  |
| COCCOc1cc2c(cc1C(N)=O)C1CC[C@@]3(C)C(CC[C@@]34CCC(C)(C)C(=O)O4)C1CC2 (stereo partly drawn) [EM-1424, 2-Carbamoyl-3-(2″-methoxyethyloxy)-1,3,5(10)-estratrien 17(R)-spiro-2′-(5′,5′-dimethyl-6′-oxo)tetrahydropyran] | 368 ± 70 | > 10 |  |
| COc1cc2c(cc1C(F)(F)F)C1CCC3(C)C(CCC34CCC(C)(C)C(=O)O4)C1CC2 [EM-1409, 3-Methoxy-2-trifluoromethyl-1,3,5(10)-estratrien-17(R)-spiro-2′-(5′,5′-dimethyl-6′-oxo)tetrahydropyran] | 36 ± 13 |  | inhibition [1]: 4% |
| CC1(C)CCC2(CCC3C4CCc5c(cc(Cl)c(OS(C)(=O)=O)c5Cl)C4CCC32C)OC1=O (centres unmarked) [EM-1392-CS] | 305 ± 49 | > 10 |  |
| COc1ccc2c(c1)C(=O)CC1C3CCC4(CCC(C)(C)C(=O)O4)C3(C)CCC21O (centres unmarked) [EM-1386] | 5600 ± 789 | > 10 |  |
| CC1(C)CCC2(CCC3C4CCc5cc(O)c(C#N)cc5C4CCC32C)OC1=O (centres unmarked) [EM-01645] | 52 ± 3 |  | inhibition [1]: 38% |
| CC1CCC2(CCC3C4CCc5cc(O)c([N+](=O)[O-])cc5C4CCC32C)OC1=O [EM-1131, 2-Nitro-1,3,5(10)-estratrien-3-ol-17(R)-spiro-2′-(5′-methyl-6′-oxo)tetrahydropyran] | 124 ± 27 |  | inhibition [1]: 70% |
